The text below walks through data of patent US20230331652A1, “TRANS-CYCLOOCTENES WITH HIGH REACTIVITY AND FAVORABLE PHYSIOCHEMICAL PROPERTIES” (University of Delaware, priority 2020, published 2023).

This assay concerns HeLa cells. In words: TAMRA-TCO comparative washout assay. The assay is classed as cell-based. The following applies: 5 μM, 30 min incubation. The source says: While TCO-derivatives offer rapid labeling kinetics, a consideration for labeling by fluorophore-tagged TCOs has been the background fluorescence due to non-covalent cellular binding that can be ameliorated only by extended washout times. More hydrophilic oxo- and dioxo-trans-cyclooctenes with backbone oxygens offer improvements, but are difficult to synthesize and, for dioxo-TCO, display reduced Diels-Alder kinetics. As shown in FIGS. 5A-5C, the fluorescent conjugates TAM RA-TCO, TAMRA-oxo-TCO and TAMRA-a-TCO were prepared and compared their cellular washout times to unconjugated TAMRA. Thus, HeLa cells were incubated for 30 min with TAMRA-dyes, and cells were initially washed three times with DPBS, and then cell media was exchanged after 10, 40 and 120 minutes. After each wash, cells were imaged live by fluorescence microscopy with illumination at 531 nm and fixed-intensity across all samples. Widefield images of the cells after 3 washes are shown in FIG. 5B; images after the earlier and later washings are shown in FIG. 8. Background fluorescence was quantified by dividing total fluorescence by the number of cells in each image (FIG. 5C).
HeLa cells were seeded at 5×10^3 cells per well in a poly-L-lysine (0.1 mg/mL) coated 48-well plate and allowed to grow for 48 hours in Dulbecco's modified eagle medium (DMEM, Life Technologies) supplemented with 5% FBS (Life Technologies), 1 mM L-glutamine, and 1% penicillin/streptomycin (Life Technologies). Cells were then incubated with media containing 5 μM of TAMRA-TCO, TAMRA-oxo-TCO, or TAMRA-a-TCO 12 (1 mM stock solutions in DMSO, diluted twice into media) for 30 mins at 37° C. All wells were washed three times with DPBS before adding fresh media. Cells were imaged after 2 DPBS washes and again after the 3rd DPBS wash, then incubated for additional time intervals: 10 minutes, 40 minutes, and 2 hour. At each time point, the media was removed from the designated wells and replaced with fresh media before imaging. Images were taken with an EVOS M7000 and all images were taken with the same laser power and gain. Fluorescence intensity was calculated for each sample in 3 replicates using ImageJ and the fluorescence data was normalized with the cell count of each image.

Regarding `CN(C)c1ccc2c(-c3ccc(C(=O)NCCCCCNC(=O)OC[C@@H]4CC/C=C/CCO4)cc3C(=O)[O-])c3ccc(=[N+](C)C)cc-3oc2c1` (stereo in doubt) [TAMRA-oxo-TCO, (S,E)-2-(6-(dimethylamino)-3-(dimethyliminio)-3H-xanthen-9-yl)-5-((5-((((3,4,7,8-tetrahydro-2H-oxocin-2-yl)methoxy)carbonyl)amino)pentyl)carbamoyl)benzoate, reference compound], the “background fluorescence after 3 washings” value (3 washes with DPBS) is listed as “improved”. Also, the “background fluorescence / washout after 2 hours” value (media exchanges up to 2 hours) is “residual fluorescence”.
